Patent publication US20240277716A1, “Suppressive T Cell Populations and Methods of Cancer Immunotherapy” (La Jolla Institute for Immunology, priority 2021, published 2024)

Columns and labels:
Format in all cases: in vivo, mouse
[1] = tested on: TREG cells from tumor, spleen and colonic tissue; test: Single-cell RNA-seq and flow cytometry of TREG and CD8+ T cells from tumor, spleen and colon of B16F10-OVA tumor-bearing mice
Method: (§1) Murine lymphocytes were isolated from the spleen by mechanical dispersion through a 70-μm cell strainer (Miltenyi) to generate single-cell suspensions. RBC lysis (Biolegend) was performed to remove red blood cells. Tumor samples were harvested and lymphocytes were isolated by dispersing the tumor tissue in 2 ml of PBS, followed by incubation of samples at 37° C. for 15 min with DNase I (Sigma) and Liberase DL (Roche). The suspension was then diluted with MACS buffer and passed through a 70-μm cell strainer to generate a single cell suspension. Colons were collected and rinsed in 1 mM dithiothreitol (DTT) to remove feces. Each colon was cut into 2-3 mm pieces and incubated 3 times in pre-digestion solution (HBSS containing 5% FBS and 2 mM EDTA) at 37° C. for 20 min under high rotation to remove epithelial cells. Then tissues were minced with scissors and incubated with digestion solution (HBSS containing 5% FBS, 100 μg/ml DNase I (Sigma) and 1 mg/ml collagenase (Sigma)) at 37° C. for 20 min under high rotation to get single cell solutions of lamina propria cells. Cells were prepared in staining buffer (PBS with 2% FBS and 2 mM EDTA), FcR blocked (clone 2.4G2, BD Biosciences) and stained with antibodies as indicated below for 30 min at 4° C.; secondary stains were done for selected markers. Samples were then sorted or fixed and intracellularly stained using a FoxP3 transcription factor kit according to manufacturer's instructions (eBioscience). Cell viability was determined using fixable viability dye (ThermoFisher). The following antibodies from BD Biosciences, Biolegend, Miltenyi or eBbioscience were used: anti-human PD-1 (EH12.1, 1:30), CD4 (OKT4, 1:30), CD137 (4B4-1, 1:30), GITR (108-17, 1:30), ICOS (C398.4A, 1:50), CD8A (SKI, 1:30), CD25 (M-A251, 1:20), CD3 (SK7, 1:30), CD127 (eBioRDR5, 1:50), CD45 (HI30, 1:30), CD14 (HCD14, 1:50), CD20 (2H7, 1:50); anti-mouse CD3 (145-2C11, 1:100), CD4 (RM4-5, 1:100), CD8 (53-6.7, 1:100), PD-1 (29F1.A12, 1:100), ST2 (U29-93, 1:100) Ki67 (B56, 1:40), TOX (REA473, 1:40), CD19 (6D5, 1:100), CD45 (30-F11, 1:100), FOXP3 (FJK-16s, 1:100), GZMB (QA16A02, 1:40). All samples were acquired on a BD FACS Fortessa or sorted on a BD FACS Fusion (both BD Biosciences) and analyzed using FlowJo 10.4.1 for subsequent single-cell RNA-seq analysis.
Murine TREG cells. […] Reads were mapped with Cell Ranger followed by QC (github.com/vijaybioinfo/quality_control) and demultiplexed with bcl2fastq using default parameters. […] Differential expression was calculated with MAST^38 (v1.10.0) DESeq2 (v1.24.0) as previously described^37 and genes with an adjusted P-value <0.05 and a fold change of >log2 0.5 were defined as significant. […]

[2] = tested on: DSS-induced acute colitis; test: Dextran Sulfate Sodium (DSS)-induced acute colitis model
Method: Colitis experiments. […] Body weight of the mice was monitored. Colon tissues were collected for histological analysis at the endpoint. Whole colons were harvested from mice between cecum and rectum. Stools were flushed out of lumen with PBS. Then colons were fixed with zinc formalin for 5 minutes. Fixed colons were opened longitudinally, flattened, cut into 3 fragments and further fixed in zinc formalin for 48 hours in cassettes. After fixation, samples were transferred to 70% isopropanol for long term storage or H&E staining. Slides were scored blindly according to the following criteria: inflammation, area of infiltration (extent), crypt damage and edema. The colon was divided into 3 equal parts and the middle section was utilized for scoring. Four randomly selected areas were analyzed, and a histological score was determined.

[3] = tested on: B16F10-OVA melanoma cells; test: B16F10-OVA melanoma model, PI-3065 in diet: tumor volume and flow cytometry
Method: (§2) Tumor experiments. Mice were inoculated with 1-1.5×10^5 B16F10-OVA cells subcutaneously into the right flank. Mice were put on either a control diet or a diet containing a PI3Kδ inhibitor PI-3065 on day 1 or day 5 after tumor inoculation. Diets were prepared using powdered 2018 global rodent diet (Envigo) mixed with or without PI-3065 at 0.5 g/kg, which corresponds to a daily dose of 75 mg/kg as used previously. To pellet the food, 50% v/w water was added to the diet and dough thoroughly mixed, compressed, molded and dried before use. Tumor size was monitored every other day, and tumor harvested at indicated time points for analysis of tumor-infiltrating lymphocytes. Tumor size limit of 15 mm in diameter was not exceeded and volume was calculated as ½×D×d^2, where D is the major axis and d is the minor axis, as described previously^36.
as §1

[4] = tested on: colonic CD8+ and CD4+ T cells; test: scRNA sequencing of colonic CD8+ and CD4+ T cells under different PI3Kδi dosing regimens
Method: as §2
Murine colonic CD4+ and CD8+ T cells. Single-cell RNA-seq was performed by using the 10× platform. Mapping, aggregation, and QC was carried out as described above with the following thresholds: genes per cells range of [300, 4500], UMI content per cell […], percent of mitochondrial counts of <=10%, and a doublet score of <=0.3. Cluster of contaminant cells expressing epithelial, monocyte, and fibroblast markers was eliminated after the first round of clustering. The final number of cells were n=6415 CD4^+ T cells and n=2715 CD8^+ T cells.

Fc1ccc2[nH]ccc2c1-c1nc(N2CCOCC2)c2sc(CN3CCN(CC4CC4)CC3)cc2n1 [PI-3065]
differentially expressed genes in colonic TREG cells ([1]; PI3Kδi vs placebo treatment): 869 genes
colonic TREG subsets (clusters 2 and 8) ([1]; PI3Kδi-treated mice): depleted
CD8+ T cells in colonic tissue ([1]; colonic, but not splenic tissue): significant increase
ratio of CD8+ T cells to ST2 TREG cells ([1]; protein level): substantially increased
body weight ([2]; 2.5% DSS from day 14-20, PI-3065 diet vs placebo): swift reduction in body weight
deaths prior to experimental endpoint ([2]; PI3Kδ inhibitor-treated group, n=10): one
effect on colitis ([2]; PI-3065 diet plus 2.5% DSS): exacerbates colitis
overall colitis score ([2]; inflammation, crypt damage, extent, vs placebo): higher overall colitis score
tumor volume ([3]; C57BL/6 wild-type mice, PI-3065 diet vs control): significant decrease
TREG cells in tumor, spleen and colon ([3]; PI3Kδi-treated vs placebo-treated mice): significant decrease
tumor growth ([3]; continuous dosing (for the duration of the experiment)): decrease in tumor growth
CD8+ T cell infiltration in colonic tissue ([3]; continuous dosing only): increased
TREG cell levels in colonic tissue ([3]; continuous dosing only): decreased
intratumoral CD8+ T cells ([3]; high PD-1, increased proliferative and cytotoxic capacity): significant increase
tumor growth ([3]; infrequent dosing (2 days on, 5 days off), 2 cycles): decrease in tumor growth, albeit not significantly
tumor growth ([3]; intermittent dosing (4 days on, 3 days off), 2 cycles): significant decrease in tumor growth
TOX in CD8+ T cells ([3]; post-PI3Kδi): increased
innate-like CD8+ T cells in colon ([4]; across dosing regimens): dosing-dependent decrease
TC17 and TH17 subsets and pertaining proliferating clusters, share of all cells ([4]; continuous dosing regimen): ~50%
TC17 and TH17 subsets and pertaining proliferating clusters ([4]; other treatment conditions (intermittent, infrequent, control)): nearly completely absent
